Earlier results on one compound are cited in article PMC7343746, “(2S, 4R)-4-[^18F]Fluoroglutamine for In vivo PET Imaging of Glioma Xenografts in Mice: an Evaluation of Multiple Pharmacokinetic Models” (Molecular Imaging and Biology, 2020).

Molecules are shown by their SMILES.

For this data set, the system named is alanine aminotransferase. The arrangement: method as in PMID 22613816. The following applies: cited from earlier work.

For the compound `N[C@@H](C[C@@H]([18F])C(=O)O)C(=O)O` [(2S, 4R)-4-[^18F]fluoroglutamate], the “Efficiency of processing and defluorination versus non-fluorinated natural counterpart” value is 5.6 times.
